This is an account of results in ChEMBL document CHEMBL3351535, “Identification of novel phenyl butenonyl C-glycosides with ureidyl and sulfonamidyl moieties as antimalarial agents” (ACS Med Chem Lett, 2014).

In series [1] the test system is Plasmodium falciparum. Nature of the series: Antimalarial activity against Plasmodium falciparum 3D7 after 72 hrs by SYBR Green fluorescence assay. To be noted: 3D7, 72 h. It is filed as functional, organism-based.
Series [2] deals with Plasmodium falciparum. Nature of the series: Antimalarial activity against Plasmodium falciparum K1 after 72 hrs by SYBR Green fluorescence assay. Type of series: functional, organism-based. The note with it: K1, 72 h.
Series [3] in a line: Cytotoxicity against african green monkey Vero cells after 2 days by resazurin assay. It is filed as cell-based. The note with it: chlorocebus sabaeus. Background: Resazurin is reduced to fluorescent resorufin, in cell work by metabolically active cells.
Series [4] is described as follows: Terminal elimination half-life in Sprague-Dawley rat at 5 mg/kg, iv. Type of series: ADME, organism-based. Details: dose 5 mg/kg, route intravenous. The note with it: in vivo, read-out: beta t1/2 (converted).
A short description of series [5]: Volume of distribution in Sprague-Dawley rat at 5 mg/kg, iv. Details: dose 5 mg/kg, route intravenous. The note with it: in vivo. It is filed as ADME, organism-based.
Series [6] is described as follows: Systemic clearance in Sprague-Dawley rat at 5 mg/kg, iv. Type of series: ADME, organism-based. Details: dose 5 mg/kg, route intravenous. To be noted: in vivo.
The next series relates to Heme. Nature of the series: Inhibition of heme polymerization in Plasmodium yoelii nigeriensis infected erythrocytes (unknown origin) extract at 100 uM after 4 hrs by spectrophotometry.

Some results are limits rather than exact numbers.

As for `O=C(/C=C/c1cccc(NC(=O)Nc2ccccc2)c1)C[C@@H]1OC[C@@H](O)[C@H](O)[C@H]1O`, the IC50 (usually the concentration needed to halve the response being measured) was found to be 3.44 µM in the series with Plasmodium falciparum [1] and 5.43 µM in the series on Plasmodium falciparum [2]. For the same molecule, it took 309 µM to reach half-maximal cytotoxicity in series [3] (CC50 at 48 h).
The like results for `O=C(/C=C/c1cccc(NC(=O)Nc2ccccc2)c1)C[C@@H]1O[C@H](CO)[C@@H](O)[C@H](O)[C@H]1O` were, in that order, 3.77 µM, 3.39 µM and 373 µM.
For `O=C(/C=C/c1ccc(NC(=S)Nc2ccccc2)cc1)C[C@@H]1O[C@H](CO)[C@@H](O)[C@H](O)[C@H]1O`, the IC50 with Plasmodium falciparum [1] stood at 11.8 µM; in the series on Plasmodium falciparum [2] it was 13.8 µM. For the same molecule, in series [3], the CC50 (in general, the concentration giving 50% cytotoxicity) at 48 h worked out at 274 µM.
For the molecule `O=C(/C=C/c1cccc(NC(=S)Nc2ccccc2)c1)C[C@@H]1OC[C@@H](O)[C@H](O)[C@H]1O`, the IC50 with Plasmodium falciparum [1] was determined as 6.89 µM; in the series on Plasmodium falciparum [2], 8.69 µM. Also, half-maximal cytotoxicity in series [3] (CC50 at 48 h) was put at 289 µM.
With `O=C(/C=C/c1cccc(NC(=S)Nc2ccccc2)c1)C[C@@H]1O[C@H](CO)[C@@H](O)[C@H](O)[C@@H]1O`, the values for the IC50 with Plasmodium falciparum [1] and in the series on Plasmodium falciparum [2] were 13.1 µM and 17.8 µM, respectively. Moreover, the midpoint of cytotoxicity in series [3], the CC50 at 48 h, lay at 336 µM.
The like results for `Cc1ccc(S(=O)(=O)Nc2cccc(/C=C/C(=O)C[C@@H]3OC[C@@H](O)[C@H](O)[C@H]3O)c2)cc1` were, in that order, 2.93 µM, 6.35 µM and 94.7 µM.
On to `COc1ccc(NC(=O)Nc2ccccc2)c([N+](=O)[O-])c1`, for which the IC50 was > 20 µM in the series on Plasmodium falciparum [1] and 18 µM in the series with Plasmodium falciparum [2]. The CC50 at 48 h in series [3] is 356 µM.
The like results for `CC(=O)OC[C@H]1O[C@@H](CC(=O)/C=C/c2cccc(NC(=O)Nc3ccccc3)c2)[C@@H](OC(C)=O)[C@@H](OC(C)=O)[C@@H]1OC(C)=O` were, in that order, 6.65 µM, 7.81 µM and 102 µM.
The like results for `CC(=O)OC[C@H]1O[C@@H](CC(=O)/C=C/c2cccc(NC(=S)Nc3ccccc3)c2)[C@@H](OC(C)=O)[C@@H](OC(C)=O)[C@@H]1OC(C)=O` were, in that order, 3.73 µM, 2.87 µM and 65.1 µM.
The corresponding values for `CC(=O)OC[C@H]1O[C@@H](CC(=O)/C=C/c2ccc(NC(=S)Nc3ccccc3)cc2)[C@H](OC(C)=O)[C@@H](OC(C)=O)[C@@H]1OC(C)=O` are 1.83 µM, 2.3 µM and 663 µM.
Regarding `CC(=O)OC[C@H]1O[C@@H](CC(=O)/C=C/c2cccc(NS(=O)(=O)c3ccc(C)cc3)c2)[C@H](OC(C)=O)[C@@H](OC(C)=O)[C@@H]1OC(C)=O`, the figures for the IC50 in the series with Plasmodium falciparum [1] and with Plasmodium falciparum [2] were 1.14 µM and 2.17 µM, respectively. The molecule further displayed a CC50 at 48 h in series [3] of 584 µM.
The like results for `CC(=O)OC[C@H]1O[C@@H](CC(=O)/C=C/c2ccc(NC(=O)Nc3ccccc3)cc2)[C@H](OC(C)=O)[C@@H](OC(C)=O)[C@@H]1OC(C)=O` were, in that order, 5.27 µM, 5.55 µM and 820 µM.
The corresponding values for `CC(=O)O[C@@H]1[C@@H](OC(C)=O)[C@H](OC(C)=O)CO[C@H]1CC(=O)/C=C/c1cccc(NS(=O)(=O)c2ccc(C)cc2)c1` are 1.39 µM, 3 µM and 268 µM.
With `O=C(/C=C/c1ccc(NC(=O)Nc2ccccc2)cc1)C[C@@H]1O[C@H](CO)[C@@H](O)[C@H](O)[C@H]1O`, the IC50 in the series with Plasmodium falciparum [1] stood at 7.51 µM; in the series on Plasmodium falciparum [2] it was 7.66 µM. Moreover, it took 1130 µM to reach half-maximal cytotoxicity in series [3] (CC50 at 48 h).
`O=C(/C=C/c1cccc(NC(=O)Nc2ccccc2)c1)C[C@@H]1O[C@H](CO)[C@@H](O)[C@H](O)[C@@H]1O`: the IC50 in the series on Plasmodium falciparum [1] and in the series on Plasmodium falciparum [2] was 20 µM in each case.
`CC(=O)OC[C@H]1O[C@@H](CC(=O)/C=C/c2ccc(NC(=O)Nc3ccc4ccccc4c3)cc2)[C@H](OC(C)=O)[C@@H](OC(C)=O)[C@@H]1OC(C)=O`: the IC50 was 2.18 µM in the series with Plasmodium falciparum [1] and 5.36 µM in the series with Plasmodium falciparum [2]. Moreover, in series [3], it took 482 µM to reach half-maximal cytotoxicity (CC50 at 48 h).
As to `COc1cc([N+](=O)[O-])ccc1NC(=S)Nc1cccc(/C=C/C(=O)C[C@@H]2O[C@H](CO)[C@@H](O)[C@H](O)[C@H]2O)c1`, the IC50 worked out at 3.35 µM in the series on Plasmodium falciparum [1] and 2.47 µM in the series on Plasmodium falciparum [2]. Half-maximal cytotoxicity in series [3] (CC50 at 48 h) was put at 203 µM.
The like results for `O=C(/C=C/c1ccc(NC(=O)Nc2ccc3ccccc3c2)cc1)C[C@@H]1O[C@H](CO)[C@@H](O)[C@H](O)[C@H]1O` were, in that order, 5.91 µM, 5.28 µM and 1020 µM.
In the case of `CCN(CC)CCCC(C)Nc1ccnc2cc(Cl)ccc12` (centres undefined) [CHLOROQUINE], half-maximal cytotoxicity in series [3] (CC50 at 48 h) was put at 685 µM.
Take `CC(=O)OC[C@H]1O[C@@H](CC(=O)/C=C/c2cccc(NC(=S)Nc3ccccc3)c2)[C@H](OC(C)=O)[C@@H](OC(C)=O)[C@@H]1OC(C)=O`: the IC50 in the series on Plasmodium falciparum [1] was 1.91 µM; with Plasmodium falciparum [2], 4.48 µM. This molecule gave a CC50 at 48 h in series [3] of 337 µM.
The like results for `CCOC(=O)/C=C/c1cccc(NS(=O)(=O)c2ccc(C)cc2)c1` were, in that order, 16.1 µM, 16.1 µM and 77.1 µM.
For `Cc1ccc(S(=O)(=O)Nc2ccccc2)cc1`, the IC50 with Plasmodium falciparum [1] and in the series with Plasmodium falciparum [2] was > 20 µM throughout. In addition, in series [3], it took 221 µM to reach half-maximal cytotoxicity (CC50 at 48 h).
Turning to `Cc1ccc(S(=O)(=O)Nc2cccc(/C=C/C(=O)C[C@@H]3O[C@H](CO)[C@@H](O)[C@H](O)[C@@H]3O)c2)cc1`, the IC50 worked out at 3.89 µM in the series with Plasmodium falciparum [1] and 5.11 µM in the series with Plasmodium falciparum [2]. For the same molecule, the midpoint of cytotoxicity in series [3], the CC50 at 48 h, lay at 417 µM.
For `COc1ccc(NC(=O)Nc2cccc(/C=C/C(=O)C[C@@H]3O[C@H](CO)[C@@H](O)[C@H](O)[C@H]3O)c2)c([N+](=O)[O-])c1`, the IC50 worked out at 0.56 µM in the series on Plasmodium falciparum [1] and 1.58 µM in the series on Plasmodium falciparum [2]. It took 709 µM to reach half-maximal cytotoxicity in series [3] (CC50 at 48 h). In addition, the half-life in series [4] is 7.1 h. The Vd (commonly the apparent volume that relates the amount in the body to the concentration in plasma or blood) in series [5] is 2.8 L/kg. In addition, the clearance (commonly a measure of how efficiently the substance is removed, as volume per time) in series [6] is 17 mL/min/kg.
As for `CC(=O)O[C@@H]1[C@@H](OC(C)=O)[C@H](OC(C)=O)CO[C@H]1CC(=O)/C=C/c1cccc(NC(=O)Nc2ccccc2)c1`, the IC50 worked out at 3.17 µM with Plasmodium falciparum [1] and 4.92 µM in the series with Plasmodium falciparum [2]. This molecule registered a CC50 at 48 h in series [3] of 102 µM. In addition, the inhibition (in general, the percentage by which the read-out fell short of the control) in the series with Heme turned out to be 76.9%.
In the case of `O=C(/C=C/c1cccc(NC(=S)Nc2ccccc2)c1)C[C@@H]1O[C@H](CO)[C@@H](O)[C@H](O)[C@H]1O`, the results for the IC50 with Plasmodium falciparum [1] and in the series on Plasmodium falciparum [2] were 9.43 µM and 7.2 µM, respectively. The same molecule returned a CC50 at 48 h in series [3] of 371 µM.
In the case of `Cc1ccc(S(=O)(=O)Nc2cccc(/C=C/C(=O)C[C@@H]3O[C@H](CO)[C@@H](O)[C@H](O)[C@H]3O)c2)cc1`, the figures for the concentration for half-maximal inhibition (IC50) with Plasmodium falciparum [1] and in the series on Plasmodium falciparum [2] were 2.2 µM and 3.87 µM, respectively. The CC50 at 48 h in series [3] is 381 µM.
Take `CC(=O)OC[C@H]1O[C@@H](CC(=O)/C=C/c2cccc(NC(=O)Nc3ccccc3)c2)[C@H](OC(C)=O)[C@@H](OC(C)=O)[C@@H]1OC(C)=O`: the half-maximal inhibitory concentration (IC50) came out at 2.29 µM in the series on Plasmodium falciparum [1] and 2.4 µM in the series on Plasmodium falciparum [2]. Further, in series [3], it took 180 µM to reach half-maximal cytotoxicity (CC50 at 48 h). In the series with Heme, this molecule came in with an inhibition of 72.5%.
As to `O=C(Nc1ccccc1)Nc1ccccc1`, the 50% inhibitory concentration (IC50) with Plasmodium falciparum [1] is 13.8 µM; in the series with Plasmodium falciparum [2] it was > 20 µM. For the same molecule, the CC50 at 48 h in series [3] came out at 352 µM.
For `COc1cc([N+](=O)[O-])ccc1NC(=S)Nc1cccc(/C=C/C(=O)C[C@@H]2O[C@H](COC(C)=O)[C@@H](OC(C)=O)[C@H](OC(C)=O)[C@H]2OC(C)=O)c1`, the results for the IC50 in the series with Plasmodium falciparum [1] and in the series on Plasmodium falciparum [2] were 0.55 µM and 0.42 µM, respectively. This molecule yielded a CC50 at 48 h in series [3] of 559 µM. In the series on Heme, this molecule came in with an inhibition of 72.1%.
The like results for `COc1ccc(NC(=O)Nc2cccc(/C=C/C(=O)C[C@@H]3O[C@H](COC(C)=O)[C@@H](OC(C)=O)[C@H](OC(C)=O)[C@H]3OC(C)=O)c2)c([N+](=O)[O-])c1` were, in that order, 0.94 µM, 4.23 µM, 730 µM and 92.7%.
As for `CCOC(=O)/C=C/c1cccc(NC(=S)Nc2ccccc2)c1`, the IC50 with Plasmodium falciparum [1] and with Plasmodium falciparum [2] was > 20 µM throughout. In series [3], this molecule returned a CC50 at 48 h of 279 µM.
`CCOC(=O)/C=C/c1cccc(NC(=O)Nc2ccccc2)c1`: the IC50 came out at 8.8 µM in the series with Plasmodium falciparum [1] and 13.4 µM with Plasmodium falciparum [2]. Besides, in series [3], it took 293 µM to reach half-maximal cytotoxicity (CC50 at 48 h).
The like results for `CC(=O)OC[C@H]1O[C@@H](CC(=O)/C=C/c2cccc(NS(=O)(=O)c3ccc(C)cc3)c2)[C@@H](OC(C)=O)[C@@H](OC(C)=O)[C@@H]1OC(C)=O` were, in that order, 3.96 µM, 5.19 µM and 123 µM.
The like results for `CC(=O)O[C@@H]1[C@@H](OC(C)=O)[C@H](OC(C)=O)CO[C@H]1CC(=O)/C=C/c1cccc(NC(=S)Nc2ccccc2)c1` were, in that order, 4.2 µM, 5.57 µM and 58.7 µM.
